Reference: patent publication US7795226B2, “Control of radiation injury” (Biotempt B.V., priority 2006, dated 2010)

Tested on: cell-cycle marker pCDG and auxin-responsive marker DR5::GUS
Test: Arabidopsis thaliana seedling cell-cycle analysis (GUS markers)
Details: for identified as useful peptide for treatment of radiation injury from cell-cycle studies in plants and in vitro proliferation studies: Results from Examples 9 and 10
Method: To further study anti-cell-cycle activity of various oligopeptides, a proliferation experiment in Arabidopsis Thaliana seedlings was performed. The aim was to test a group of 140 oligopeptides of varying length for their effect on plant marker gene expression during rapid growth when avid cell division occurs.
The peptides were re-suspended in 1× Phosphate Buffer Saline (PBS) pH 8 to a final concentration of 5 mg/ml. The obtained solutions were then divided through 96-well round bottom plates (Corning Incorporated) at 40 microliters per well. Plates were stored before use at […] for four days. Seeds of Arabidopsis thaliana ecotype Ws-0 were surface sterilized in 2% commercial bleach (Gloria) for ten minutes and washed five times with sterile MQ water. The seeds were then re-suspended with 0.1% agar and plated on MS20 plates supplemented with 80 mg/l Kanamycin.
The plates were placed at […] for two nights and then transferred to a climate room at […] and a 16/8 hours photoperiod. After four days of growth, the seedlings were transferred to 96-well plates containing the peptide solutions (four seedlings per well) and incubated for four and eight hours.
For this experiment, Arabidopsis homozygous seedlings harboring two reporter genes fused to GUS were used. […] After incubation with the compounds, the seedlings were stained for GUS. The staining reaction was performed in 100 mM sodium phosphate buffer (pH 7.0) that contained 10 mM EDTA, 10% DMSO, 0.1% Triton X-100, 2 mM X-Gluc, 0.5 mM K3Fe(CN)6 and 0.5 mM K4Fe(CN)6 at […] for 16 hours. […] Seedlings were fixed and cleared in chloral hydrate solution for detailed microscopic observation and photography under a microscope equipped with DIC optics.
Peptides were tested for an effect on marker gene expression on rapidly growing Arabidopsis young seedlings. This was monitored by changes on GUS distribution in different organs: root, root-hypocotyl transition zone and cotyledons.

Substance	identified as useful peptide for treatment of radiation injury from cell-cycle studies in plants and in vitro proliferation studies	effect on cell-cycle marker (pCDG) and auxin-responsive marker (DR5::GUS) (in words) (seedlings incubated four and eight hours, 5 mg/ml peptide solution)
ITTL (human beta-catenin-derived peptide)	useful	
VCNYRDV	useful	
LNEAL (pentamer peptide)	useful	
VLPAPLQ (septamer peptide)	useful	
RLPG	useful	
LNTI (human beta-catenin-derived peptide)	useful	
VGQL (tetramer peptide)	useful	
QVVC (tetramer peptide)	useful	
FVLS (CRP-derived peptide)	useful	
LQAV (tetramer peptide)	useful	
EMFQ (tetramer peptide)	useful	
PGCP	useful	
YAIT (human beta-catenin-derived peptide)	useful	
AVAL	useful	
VGGI	useful	
EVVR (tetramer peptide)	useful	
FSYA (CRP-derived peptide)	useful	
LCFL	useful	
NMWD (CRP-derived peptide)	useful	
NLIN (human beta-catenin-derived peptide) [NUN]	useful	
DINGFLPAL	useful	less consistent and time-dependent effect

Substance	identified as useful peptide for treatment of radiation injury from cell-cycle studies in plants and in vitro proliferation studies	effect on cell-cycle marker (pCDG) and auxin-responsive marker (DR5::GUS) (in words) (seedlings incubated four and eight hours, 5 mg/ml peptide solution)
QALG (human beta-catenin-derived peptide)	useful	
CPRGVNP	useful	
FWVD (CRP-derived peptide)	useful	
EALE (tetramer peptide)	useful	
EPPE (tetramer peptide)	useful	
APSL (human beta-catenin-derived peptide)	useful	
MGGTWA	useful	
VEGNL (pentamer peptide)	useful	
LTCDDP	useful	
LGTL	useful	
AFTV (CRP-derived peptide)	useful	
GVLC (human beta-catenin-derived peptide)	useful	
QPLAPLVG	useful	
TLAVE (beta-hCG-derived peptide)	useful	
MTEV (tetramer peptide)	useful	
CPVQ (tetramer peptide)	useful	
LQGA (tetramer peptide)	useful	
QLLG (human beta-catenin-derived peptide)	useful	
SPIE (human beta-catenin-derived peptide)	useful	
RVLQ (tetramer peptide)	useful	
LHNL	useful	
